# Laboratory results as given in ChEMBL document CHEMBL2157896, “Engineering pH-gated transitions for selective and efficient double-strand DNA photocleavage in hypoxic tumors” (J Med Chem, 2011).
# Activity calls are given as the source filed them. The rule behind the calls is not given here.
# Key:
# Nucleic Acid [1] = assay: Induction of photochemical DNA cleavage in Escherichia coli pBR322 assessed as form I level at 15 uM in pH 7.0 phosphate buffer measured after 8 mins of UV irradiation; assay type: nucleic-acid assay
# Nucleic Acid [2] = assay: Induction of photochemical DNA cleavage in Escherichia coli pBR322 assessed as form 2 level at 15 uM in pH 7.0 phosphate buffer measured after 0.5 mins of UV irradiation; assay type: nucleic-acid assay
# Nucleic Acid [3] = assay: Induction of photochemical DNA cleavage in Escherichia coli pBR322 assessed as form 3 level at 15 uM in pH 7.0 phosphate buffer measured after 4 mins of UV irradiation; assay type: nucleic-acid assay
# Nucleic Acid [4] = assay: Induction of photochemical DNA cleavage in Escherichia coli pBR322 assessed as disappearance of supercoiled DNA at 15 uM in pH 6.0 phosphate buffer after 10 mins of UV irradiation; assay type: nucleic-acid assay
# Nucleic Acid [5] = assay: Induction of photochemical DNA cleavage in Escherichia coli pBR322 assessed as form 2 level at 15 uM in pH 8.0 phosphate buffer measured after 10 mins of UV irradiation; assay type: nucleic-acid assay
# Nucleic Acid [6] = assay: Induction of photochemical DNA cleavage in Escherichia coli pBR322 assessed as form I level at 15 uM in pH 8.0 phosphate buffer measured after 4 mins of UV irradiation; assay type: nucleic-acid assay
# Nucleic Acid [7] = assay: Induction of photochemical DNA cleavage in Escherichia coli pBR322 assessed as form 2 level at 15 uM in pH 7.0 phosphate buffer measured after 10 mins of UV irradiation; assay type: nucleic-acid assay
# Nucleic Acid [8] = assay: Induction of DNA damage in human […] cells at 30 uM incubated for 3 hrs using cells exposed to UV irradiation for 20 mins by single cell gel electrophoresis; assay type: cell-based
# Nucleic Acid [9] = assay: Induction of photochemical DNA cleavage in Escherichia coli pBR322 assessed as form 2 level at 15 uM in pH 8.0 phosphate buffer measured after 6 mins of UV irradiation; assay type: nucleic-acid assay
# Nucleic Acid [10] = assay: Induction of photochemical DNA cleavage in Escherichia coli pBR322 assessed as form I level at 15 uM in pH 7.0 phosphate buffer measured after 1 min of UV irradiation; assay type: nucleic-acid assay
# Nucleic Acid [11] = assay: Induction of photochemical DNA cleavage in Escherichia coli pBR322 assessed as form 2 level at 15 uM in pH 8.0 phosphate buffer measured after 2 mins of UV irradiation; assay type: nucleic-acid assay
# Nucleic Acid [12] = assay: Induction of DNA cleavage in Escherichia coli pBR322 at 5 uM in pH 6.0 phosphate buffer measured after of UV irradiation; assay type: nucleic-acid assay
# Nucleic Acid [13] = assay: Induction of photochemical DNA cleavage in Escherichia coli pBR322 assessed as form 3 level at 15 uM in pH 8.0 phosphate buffer measured after 8 mins of UV irradiation; assay type: nucleic-acid assay
# A-375 [14] = assay: Drug uptake in human A375 cells at 30 uM incubated for 30 mins by differential interference contrast microscopy; assay type: ADME, cell-based; details: a-375, 0.5 h
# Nucleic Acid [15] = assay: Induction of photochemical DNA cleavage in Escherichia coli pBR322 assessed as form I level at 15 uM in pH 6.0 phosphate buffer measured after 10 mins of UV irradiation; assay type: nucleic-acid assay
# Nucleic Acid [16] = assay: Induction of photochemical DNA cleavage in Escherichia coli pBR322 assessed as form 3 level at 15 uM in pH 6.0 phosphate buffer measured after 10 mins of UV irradiation; assay type: nucleic-acid assay
# Nucleic Acid [17] = assay: Induction of photochemical DNA cleavage in Escherichia coli pBR322 assessed as form 2 level at 15 uM in pH 6.0 phosphate buffer measured after 0.5 mins of UV irradiation; assay type: nucleic-acid assay
# Nucleic Acid [18] = assay: Induction of photochemical DNA cleavage in Escherichia coli pBR322 assessed as form 2 level at 15 uM in pH 6.0 phosphate buffer measured after 6 mins of UV irradiation; assay type: nucleic-acid assay
# Nucleic Acid [19] = assay: Induction of DNA damage in human […] cells at 30 uM incubated for 3 hrs using cells exposed to UV irradiation for 4 to 24 hrs by single cell gel electrophoresis; assay type: cell-based; details: TDE = time-dependent effect
# Nucleic Acid [20] = assay: Induction of photochemical DNA cleavage in Escherichia coli pBR322 assessed as disappearance of supercoiled DNA at 15 uM in pH 8.0 phosphate buffer after 10 mins of UV irradiation; assay type: nucleic-acid assay
# Nucleic Acid [21] = assay: Induction of photochemical DNA cleavage in Escherichia coli pBR322 assessed as form 2 level at 15 uM in pH 8.0 phosphate buffer measured after 1 min of UV irradiation; assay type: nucleic-acid assay
# Nucleic Acid [22] = assay: Induction of photochemical DNA cleavage in Escherichia coli pBR322 assessed as form 3 level at 15 uM in pH 7.0 phosphate buffer measured after 0.5 mins of UV irradiation; assay type: nucleic-acid assay
# Nucleic Acid [23] = assay: Induction of photochemical DNA cleavage in Escherichia coli pBR322 assessed as form 3 level at 15 uM in pH 7.0 phosphate buffer measured after 6 mins of UV irradiation; assay type: nucleic-acid assay
# Nucleic Acid [24] = assay: Induction of photochemical DNA cleavage in Escherichia coli pBR322 assessed as form I level at 15 uM in pH 8.0 phosphate buffer measured after 8 mins of UV irradiation; assay type: nucleic-acid assay
# Nucleic Acid [25] = assay: Induction of photochemical DNA cleavage in Escherichia coli pBR322 assessed as form 3 level at 15 uM in pH 6.0 phosphate buffer measured after 4 mins of UV irradiation; assay type: nucleic-acid assay
# A-375 [26] = assay: Drug uptake in human A375 cells at 30 uM incubated for 30 mins by fluorescence microscopy; assay type: ADME, cell-based; details: a-375, 0.5 h
# Nucleic Acid [27] = assay: Induction of photochemical DNA cleavage in Escherichia coli pBR322 assessed as supercoiled DNA level at 15 uM in pH 6.0 phosphate buffer measured after 2 mins of UV irradiation; assay type: nucleic-acid assay
# Nucleic Acid [28] = assay: Induction of photochemical DNA cleavage in Escherichia coli pBR322 assessed as form 2 level at 15 uM in pH 7.0 phosphate buffer measured after 1 min of UV irradiation; assay type: nucleic-acid assay
# Nucleic Acid [29] = assay: Induction of photochemical DNA cleavage in Escherichia coli pBR322 assessed as form 3 level at 15 uM in pH 8.0 phosphate buffer measured after 1 min of UV irradiation; assay type: nucleic-acid assay
# Nucleic Acid [30] = assay: Induction of photochemical DNA cleavage in Escherichia coli pBR322 assessed as form 2 level at 15 uM in pH 8.0 phosphate buffer measured after 4 mins of UV irradiation; assay type: nucleic-acid assay
# Nucleic Acid [31] = assay: Induction of photochemical DNA cleavage in Escherichia coli pBR322 assessed as form I level at 15 uM in pH 7.0 phosphate buffer measured after 2 mins of UV irradiation; assay type: nucleic-acid assay
# Nucleic Acid [32] = assay: Induction of photochemical DNA cleavage in Escherichia coli pBR322 assessed as form I level at 15 uM in pH 7.0 phosphate buffer measured after 0.5 mins of UV irradiation; assay type: nucleic-acid assay
# Nucleic Acid [33] = assay: Induction of photochemical DNA cleavage in Escherichia coli pBR322 assessed as form I level at 15 uM in pH 6.0 phosphate buffer measured after 0.5 mins of UV irradiation; assay type: nucleic-acid assay
# Nucleic Acid [34] = assay: Induction of photochemical DNA cleavage in Escherichia coli pBR322 assessed as form 2 level at 15 uM in pH 7.0 phosphate buffer measured after 8 mins of UV irradiation; assay type: nucleic-acid assay
# A-375 [35] = assay: Toxicity in human A375 cells at <10 uM under dark condition incubated for 72 hrs by MTT assay; assay type: cell-based; details: a-375, 72 h
smiles,measurement,setting,value
NCCCC[C@H](N)C(=O)NCCCC[C@H](N)C(=O)Nc1ccc(C#Cc2c(F)c(F)nc(F)c2F)cc1.O=C(O)C(F)(F)F,Activity,Nucleic Acid [1],20.9%
same,Activity,Nucleic Acid [2],35.4%
same,Activity,Nucleic Acid [3],25%
same,Activity,Nucleic Acid [4],Active
same,Activity,Nucleic Acid [5],52.3%
same,Activity,Nucleic Acid [6],58.6%
same,Activity,Nucleic Acid [7],47.8%
same,Activity,Nucleic Acid [8],Active
same,Activity,Nucleic Acid [9],59.2%
same,Activity,Nucleic Acid [10],52.7%
same,Activity,Nucleic Acid [11],22.2%
same,Activity,Nucleic Acid [12],50%
same,Activity,Nucleic Acid [13],12.1%
same,Drug uptake,A-375 [14],Active
same,Activity,Nucleic Acid [15],0%
same,Activity,Nucleic Acid [16],78.7%
same,Activity,Nucleic Acid [17],60%
same,Activity,Nucleic Acid [18],48.1%
same,Activity,Nucleic Acid [19],tde
same,Activity,Nucleic Acid [20],Active
same,Activity,Nucleic Acid [21],16.1%
same,Activity,Nucleic Acid [22],0%
same,Activity,Nucleic Acid [23],28.1%
same,Activity,Nucleic Acid [24],42.3%
same,Activity,Nucleic Acid [25],34.9%
same,Drug uptake,A-375 [26],Active
same,Activity,Nucleic Acid [27],< 17%
same,Activity,Nucleic Acid [28],47.3%
same,Activity,Nucleic Acid [29],0%
same,Activity,Nucleic Acid [30],41.4%
same,Activity,Nucleic Acid [31],45.8%
same,Activity,Nucleic Acid [32],64.6%
same,Activity,Nucleic Acid [33],26.5%
same,Activity,Nucleic Acid [34],51%
same,Activity,A-375 [35],Non-toxic
